According to patent US20250339542A1, “CONVERSION OF A BIOLOGICALLY SILENT MIRNA BINDING SMALL MOLECULE TO AN MIRNA DEGRADER” (University of Florida Research Foundation, Incorporated, priority 2020, published 2025):
“And” between values parts separate entries of the source, which are not always exact repeats. Equal entries are not always repeated. “Also recorded” adds a separate entry of the source.

Legend:
miR-155 [1] = assay: RT-qPCR of mature miR-155 levels in MDA-MB-231 cells; format: cell-based, human; conditions: 48 h
Protocol: (§1) Tissue Culture. MDA-MB-231 cells were obtained from ATCC (HTB-26) and cultured in RPMI medium with […] & 25 mM HEPES (Corning) supplemented with 10% FBS (sigma). MCF-10a cells were obtained from ATCC(CRL-10317) and cultured in DMEM/F12 50/50 with glutamine and 15 mM HEPES(Corning) containing 20% FBS(Sigma), 1×Antibiotic-Antimycotic(Corning), 20 ng/mL of human epidermal growth factor(Pepro Tech Inc.), 100 μg/mL of insulin and […] of hydrocortisone (Pfizer &Bauer). HUVECs were cultured in EGM (Lonza) made using the EGM-2 bullet kit (Lonza) per the manufacturers protocol.
(§2) RT-qPCR analysis for Mature, Primary and Precursor miRNAs and mRNA levels. After compound treatment for the indicated time (MDA-MB-231 48 h and HUVECs 24 h), total RNA was extracted using the Zymo Quick-RNA mini prep kit according to the manufacturers protocol. Reverse Transcription (RT) for microRNAs and pri- and pre-miR-155 were done on 200 ng of RNA using the miScript II RT kit (Qiagen) according to the manufacturer's protocol. The mRNAs were done using QScript (Quanta Bio) on 200 ng of total RNA according to the manufacturer's protocol. RT-qPCR was done as mentioned above. The obtained data was analyzed by using the ΔΔCt method as described previously. For the washout experiment, MDA-MB-231 cells were treated with 3 for 48 h. Then the media was changed with fresh growth medium without compound and the cells incubated for 12, 24 and 36 h with RNA harvested and pre-miR-155 levels analyzed as described above.
(§3) RT-qPCR analysis for Mature, Primary and Precursor miRNAs and mRNA levels part. Relative RNA expression was determined by using ΔΔCt method with 18S rRNA as an internal control. Normalized fold change was calculated with the equation as below: […]

miR-155 [2] = assay: RT-qPCR of miR-155 levels in HUVECs; format: cell-based, human
Protocol: as §1, §2

pre-miR-155 [3] = assay: RT-qPCR of pre-miR-155 levels in HUVECs; format: cell-based, human
Protocol: as §1, §2

RNase L / pre-miR-155 = biological target: T1, RNase L / pre-miR-155 (Homo sapiens, UniProt Q05823); assay: Immunoprecipitation of RNase L from MDA-MB-231 cells, RT-qPCR of pre-miR-155; format: cell-based; conditions: 100 nM, 48 h, relative to untreated
T1 construct: RNase L was immunoprecipitated from MDA-MB-231 cells; endogenous in cells; host or cells: MDA-MB-231
T1 sequence (Q05823 1-741): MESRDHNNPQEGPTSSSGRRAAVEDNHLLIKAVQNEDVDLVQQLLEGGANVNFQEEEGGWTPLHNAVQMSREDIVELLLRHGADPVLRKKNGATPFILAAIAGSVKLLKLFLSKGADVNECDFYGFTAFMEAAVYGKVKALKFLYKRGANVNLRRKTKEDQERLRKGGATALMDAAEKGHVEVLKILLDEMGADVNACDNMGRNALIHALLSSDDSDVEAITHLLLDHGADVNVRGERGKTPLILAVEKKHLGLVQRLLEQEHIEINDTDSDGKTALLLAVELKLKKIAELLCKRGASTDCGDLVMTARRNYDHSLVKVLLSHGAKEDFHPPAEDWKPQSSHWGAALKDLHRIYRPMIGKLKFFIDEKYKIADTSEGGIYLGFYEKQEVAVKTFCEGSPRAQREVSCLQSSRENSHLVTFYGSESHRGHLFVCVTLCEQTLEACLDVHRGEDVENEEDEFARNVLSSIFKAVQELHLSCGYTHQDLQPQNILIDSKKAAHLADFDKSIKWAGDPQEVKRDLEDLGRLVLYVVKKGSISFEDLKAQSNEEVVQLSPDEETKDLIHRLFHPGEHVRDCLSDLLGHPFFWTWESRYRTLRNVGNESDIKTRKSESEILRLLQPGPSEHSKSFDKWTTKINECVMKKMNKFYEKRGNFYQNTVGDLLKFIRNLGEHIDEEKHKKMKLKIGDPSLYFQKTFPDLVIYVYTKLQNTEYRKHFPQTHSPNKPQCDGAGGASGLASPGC
Protocol: Immunoprecipitation of RNase L. RNase L immunoprecipitation is performed according to published procedures.^16 Briefly, at […], MDA-MB-231 cells were treated with vehicle, 100 nM of 3 or 5 for 48 h. Cells were then washed with DPBS, and detached by scraper. The collected cells were lysed in 100 L of M-PER buffer(78503, Thermo Fisher) containing 1× Protease Inhibitor Cocktail III for Mammalian Cells (Research Products International Corp.) and 80 U of RNaseOUT Recombinant Ribonuclease Inhibitor (Invitrogen) per the manufacture's protocol. The samples were centrifuged at 13,000×g at 4° C. Protein concentration was determined by using a Pierce Mico BCA Protein Assay kit (Fisher Scientific). Approximately 200 g of the total protein per sample was incubated at 4° C. overnight with Dynabeads Protein A (Life Technologies) bound to either RNase L mouse primary antibody (Santa Cruz Biotechnology: sc-74405) or j-actin mouse primary antibody (Cell signaling: 8H10D10). Beads were then washed with 1× DPBST (1× DPBS supplemented with 0.02% Tween-20) for 3 times, after which RNA was extracted by using a miRNeasy Mini Kit (Qiagen) per the manufacturer's instructions. RT-qPCR was performed the same as mentioned above.

MDA-MB-231 cells = assay: Migration assay of MDA-MB-231 cells; format: cell-based; conditions: Homo sapiens, compound 3 at 1×10^−7 M, read-out: inhibition of cellular migration
Protocol: (§4) Migration Assay: The Migration assay was performed the same as previous publication^15. Briefly, MDA-MB-231 cells were serum starved for 12 h in RPMI medium without FBS. Then, samples of 50,000 cells treated with vehicle or 155-Ribotac in serum starved medium were seeded into Hanging cell culture Inserts with 8.0 µm pores for 24 well plate with complete growth medium in the bottom well. After 20 h, the medium was aspirated and the inserts and the bottom wells were washed with DPBS twice. Then to the bottom well were added 400 µL of 4% paraformaldehyde. After fixing for 20 min. The inserts and wells were washed with DPBS twice and then treated with 400 µL of 0.1% crystal violet solution. After 20 min, the wells and inserts were washed with water twice and PBS once. Cotton swabs were used to remove the cells inside the inserts. Migration inserts were completely air-dried and imaged by using a Leica DMI3000 B upright fluorescent microscope.

HUVECs = assay: Angiogenesis: tubule network formation of HUVECs on Matrigel; format: cell-based, human
Protocol: Lastly, compound 3's (Formula I) effect on VHL protein and angiogenesis in HUVECs was studied. […] Since upregulation of VHL should attenuate the angiogenic capacity of HUVECs, their ability to differentiate into tubule networks on Matrigel as previously described was measured.^24 Treatment with compound 3, caused a decrease of 29% (100 vs. 140 branch points) in tubule branching for differentiated HUVECs. Although small, this decrease does correspond with suppression of miR-155 and de-repression of VHL, which is in line with the initial study by Kong et al. who observed a 42% reduction in branching points (FIG. 21I).^38 Taken together compound 3 degrades miR-155 in HUVECs with low nanomolar activity and is able to attenuate their angiogenic capacity.

Von-Hippel Lindau (VHL) = assay: Western blot of VHL in HUVECs; format: cell-based, human
MCF-10a cells = assay: Migration assay of transfected MCF-10a cells; format: cell-based; conditions: mock transfected MCF-10a cells
Protocol: Lastly, the dependence of migration on miR-155 and the activity of 3 on the presence of the 5′GAU/3′C_A bulge was assessed. MCF-10a cells, a model of healthy breast epithelium, were transfected with wild type pre-miR-155 and mutant pre-miR-155, where the 5′GAU/3′C_A bulge is mutated to an AU base pair. […] Treatment with 3 reduced migration of MCF-10a cells transfected with WT pre-miR-155 by 60%, in contrast to mutant miR-155 expressing cells in which the compound's binding site has been ablated, the migration of which was unaffected by 3 treatment.
as §4, with “Migration inserts were completely air-dried and imaged by using a Leica DMI3000 B upright fluorescent microscope.” left out

pri-miR-155 = assay: RT-qPCR of pri-miR-155 levels in MDA-MB-231 cells; format: cell-based, human
Protocol: as §1
RT-qPCR analysis for Mature, Primary and Precursor miRNAs and mRNA levels. After compound treatment for the indicated time (MDA-MB-231 48 h and HUVECs 24 h), total RNA was extracted using the Zymo Quick-RNA mini prep kit according to the manufacturers protocol. […] The obtained data was analyzed by using the ΔΔCt method as described previously. […] Then the media was changed with fresh growth medium without compound and the cells incubated for 12, 24 and 36 h with RNA harvested and pre-miR-155 levels analyzed as described above.
as §3

SOCS1 = assay: Western blot of SOCS1 in MDA-MB-231 cells; format: cell-based, human
Protocol: Western-Blotting. MDA-MB-231 cells were plated in 6 well plates at 150,000 cells/well. And at 50% confluency, cells were treated with Vehicle or 155-ribotac for 48 h. Then the medium was removed and washed with 1× DPBS. The cells were trypsinized and pelleted. The pellets were washed twice with 1× DPBS and then lysed in 50 L of M-PER (Thermo Fisher) buffer with 1× protease inhibitor cocktail (Roche) on ice for 20 min. The lysate was centrifuged at 4° C. for 15 min and the supernatants were collected. Protein concentration were determined using a Pierce Mico BCA Protein Assay kit (Fisher Scientific) according to the manufacturer's protocol. Approximately 20 g of total protein for each sample was resolved on a 10% SDS-polyacrylamide gel and the protein were then transferred to a PVDF membrane. […] After washing with 1× TBST for 15 min for 3 times, SOCS1 protein expression was detected by using SuperSignal West Pico Chemiluminescent Substrate (Pierce Biotechnology).
The membrane was then stripped by Stripping Buffer (200 mM glycine with 0.1% SDS, pH 2.2) for 90 min at RT and then the membrane was washed with 1× TBST for 10 min for 3 times. […] The membrane was then washed with 1× TBST for 10 min for 3 times and j-actin expression level was detected. ImageJ software was used to quantify the protein bands.

pre-miR-155 [4] = assay: RT-qPCR of pre-miR-155 levels in MDA-MB-231 cells; format: cell-based, human
Protocol: as §1, §2, §3

[5] = tested on: RNA isoforms of miR-155 that contain the 5′GAU/3′C_A binding site; assay: RT-qPCR of RNA isoforms of miR-155 (same binding site) in MDA-MB-231 cells; format: cell-based, human; conditions: 48 h
Protocol: Next, the selectivity of 3 to inhibit miR-155 out of 373 expressed miRNAs in MDA-MB-231 cell was assessed. […] A comparison of their structures to the aforementioned list of miRNAs with potential RIBOTAC sites identified that all except pre-miR-101-1 and pre-let-7g have a RIBOTAC targetable motif.
as §2

SMILES | effect on miR-155 levels / miR-155 biogenesis (miR-155 [1]) | effect on miR-155 levels (miR-155 [2]) | effect on pre-miR-155 levels (pre-miR-155 [3]) | enrichment of pre-miR-155 in RNase L pulldown fractions (RNase L / pre-miR-155) | inhibition at 0.1 µM (MDA-MB-231 cells) [%] | inhibition of angiogenic capacity / decrease in tubule branching (HUVECs; differentiated HUVECs on Matrigel) | branch points (HUVECs; differentiated HUVECs, treated (vs. 140 untreated)) | de-repression of VHL (Von-Hippel Lindau (VHL); 10 nM) [%] | de-repression of VHL (Von-Hippel Lindau (VHL); 1×10^−7 M) [fold] | lowest concentration showing reduction of miR-155 levels (miR-155 [2]) [nM] | inhibition at 0.001 µM (miR-155 [2]; Homo sapiens, HUVEC, 1×10^−9 M) [%] | effect on migration (MCF-10a cells) | degradation of the primary transcript (pri-miR-155) (pri-miR-155) [%] | lowest concentration showing cleavage of pre-miR-155 (pre-miR-155 [3]) [nM] | inhibition at 0.001 µM (pre-miR-155 [3]; Homo sapiens, HUVEC, 1×10^−9 M) [%] | de-repression of SOCS1 (SOCS1) [%] | upregulation of SOCS1 (SOCS1) [fold] | degradation of pre-miR-155 (pre-miR-155 [4]; MDA-MB-231 cells, 1×10^−7 M, 48 h) [%] | degradation of pre-miR-155 (pre-miR-155 [4]; MDA-MD-231 and/or HUVEC cells, 0.1 micromolar, summary) [%] | effect on RNA isoforms of miR-155 [5]
CCOC(=O)C1=C(Nc2ccccc2)S/C(=C\c2ccc(O)c(OCCOCCOCCOCCNC(=O)CCc3c(C)n(-c4c(C(C)C)cccc4C(C)C)c[n+]3-c3c(C(C)C)cccc3C(C)C)c2)C1=O [Compound 5] | no effect; also recorded: does not inhibit | no effect | no effect | no enrichment | – | – | – | – | – | – | – | – | – | – | – | – | – | – | – | –
CCOC(=O)C1=C(Nc2ccccc2)S/C(=C\c2ccc(OCCOCCOCCOCCNC(=O)CCc3c(C)n(-c4c(C(C)C)cccc4C(C)C)c[n+]3-c3c(C(C)C)cccc3C(C)C)c(O)c2)C1=O [Compound 3] | – | – | – | – | 50 | 20% and 29% | 100 | 50 | 1.5 | ≤ 1 | 50 | inactive | 43 | ≤ 1 | 50 | 50 | 1.6 | 60 | ≥ 60 | no effect
